The structures appear in SMILES notation.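 Where inhibition never reached the appropriate level, the endpoint shown equals the highest concentration tested. Otherwise, values were interpolated linearly from a five-concentration, 48-hour dose response in 96-well plates. TGI: concentration producing complete growth inhibition.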 Where only a bound is given, the exact number is not on record here.

Experimental findings from PubChem BioAssay (NCI) are described below.

Common to all, as to assay: NCI-60 cell line screen, 48 h
The subject of experiment [1] is IGROV1 ovarian.
For experiment [2], the system named is NCI-H522 lung.
Experiment [3] has as its system M14 melanoma.
Experiment [4] deals with SNB-19 CNS.
The subject of experiment [5] is ACHN renal.
For experiment [6], the system named is DU-145 prostate.
Experiment [7] has as its system NCI-H226 lung.
For experiment [8], the system named is RPMI-8226 leukemia.
Experiment [9] concerns U251 CNS.
Experiment [10] relates to KM12 colon.

Regarding `CC(=O)OC1[C@@H](OC(C)=O)CN(OCc2ccccc2)C[C@H]1OC(C)=O` (stereo partly specified), the TGI in [1], in [2], in experiment [3], in [4], in experiment [5] and in experiment [6] was > 100 µM each time. For the same compound, the TGI in [7], in experiment [8], in [9] and in experiment [10] was > 100 µM each time.
Regarding `COc1ccc(-c2cc(-c3ccccc3)nc3c2CC(=O)Nc2ccccc2-3)cc1OC`, the TGI in experiment [1], in experiment [2], in experiment [3], in [4], in experiment [5] and in experiment [6] was > 100 µM throughout. Besides, the TGI in [7], in [8], in [9] and in [10] was > 100 µM in each case.
Consider `COC(=O)c1ccc(C)cc1CC1Cc2c(C)cccc2C1=O` (stereo unspecified), for which the TGI in [1] is 80.1 µM; in experiment [2] it was 22.8 µM; in experiment [3] it was > 54.1 µM; in experiment [4], 89.7 µM; in experiment [5], > 94.3 µM; in experiment [6] it was > 81.9 µM. For the same compound, the TGI in experiment [7] was 37.4 µM; in experiment [8], 30.3 µM; in [9], 20.8 µM; in experiment [10], 16.1 µM.
For `COCn1c(C)c(C)c2c(=O)oc(C)nc21`, the TGI in experiment [1], in [2], in [3], in experiment [4], in experiment [5] and in experiment [6] was > 100 µM each time. Further, the TGI in [7], in experiment [8], in experiment [9] and in experiment [10] was > 100 µM each time.
In the case of `C=CCN1C[C@@H](C)N([C@@H](c2ccc(C(=O)N(CC)CC)cc2)c2cccc(OC)c2)C[C@@H]1C`, the TGI in [1], in [2], in experiment [3], in experiment [4], in experiment [5] and in experiment [6] was > 100 µM each time. For the same compound, the TGI in experiment [7], in experiment [8], in [9] and in [10] was > 100 µM throughout.
`COC(=O)C1=COc2c(n(C)c3ccccc23)-c2ccccc21`: the TGI in experiment [1], in [3], in experiment [4], in [5], in experiment [6] and in experiment [7] was > 100 µM in each case. Further, the TGI in experiment [8], in [9] and in experiment [10] was > 100 µM in each case.
Consider `Cc1nc2ccccc2n1Cc1nnc2n1N=C(c1ccccc1)CS2`, for which the TGI in experiment [1] was 20.1 µM; in experiment [2] it was 71.2 µM; in experiment [3] it was > 100 µM; in [4], > 100 µM; in [5], > 100 µM; in experiment [6] it was > 100 µM. In addition, the TGI in [7], in experiment [8], in [9] and in [10] was > 100 µM in each case.
As for `CC(=O)OCCOCCN1CCN(c2c(O)c3c(c(O)c2Cl)C(=O)C=CC3=O)CC1`, the TGI is 3.04 µM in experiment [1]; 0.583 µM in experiment [2]; 1.48 µM in experiment [3]; 6.82 µM in [4]; 0.757 µM in experiment [5]; 3.29 µM in experiment [6]. In addition, the TGI in experiment [7] worked out at 5.89 µM; in experiment [8], 1.42 µM; in [9], 4.1 µM; in [10] it was 4.92 µM.
For `Cc1ccc([N+](=O)[O-])cc1S(=O)(=O)Nc1ccc(C2=NN(S(=O)(=O)c3cc([N+](=O)[O-])ccc3C)C(c3ccco3)C2)cc1` (stereo unspecified), the TGI in experiment [1], in experiment [2], in experiment [3], in experiment [4], in experiment [5] and in experiment [6] was > 100 µM in each case. Moreover, the TGI in experiment [7], in experiment [8] and in [10] was > 100 µM in each case.
In the case of `C[N+](C)(C)C(C1=CCCC1=O)c1ccccc1` (stereo unspecified), the TGI in experiment [1] was > 100 µM; in [2], 35 µM; in [3], > 100 µM; in [4] it was > 100 µM; in [5], 64.3 µM; in experiment [6], > 100 µM. Besides, the TGI was > 100 µM in experiment [7], 44.2 µM in experiment [8], 42.7 µM in [9] and 49.1 µM in experiment [10].
With `Nc1ccc(OCCCc2c(-c3ccccc3)nc(N)[nH]c2=O)cc1`, the TGI in experiment [1], in experiment [2], in experiment [3], in [4], in experiment [5] and in experiment [6] was > 100 µM in each case. Further, the TGI in experiment [7], in experiment [8], in experiment [9] and in experiment [10] was > 100 µM in each case.
Regarding `S=C(c1c[nH]c2ccccc12)N1CCCCC1`, the TGI in experiment [1], in experiment [3], in experiment [4], in [5], in experiment [6] and in [7] was > 100 µM in each case. The TGI in experiment [8], in experiment [9] and in experiment [10] was > 100 µM throughout.
`NC(C(=O)OC(=O)c1ccccc1)C(=O)OC(=O)c1ccccc1`: the TGI in experiment [2], in [3], in [4], in [5], in [6] and in experiment [7] was > 100 µM throughout. Moreover, the TGI in experiment [8], in experiment [9] and in experiment [10] was > 100 µM throughout.
With `CC(=O)C1=C(C)N(c2ccccc2)C2(O)C=CC(=O)C3=C(O)c4ccccc4C(=O)C312` (stereo unspecified), the TGI in experiment [1] worked out at 34.3 µM; in experiment [2], 36.4 µM; in experiment [3], 58.8 µM; in experiment [4] it was 38.6 µM; in [5], 31.2 µM; in [6], 28.5 µM. In addition, the TGI in experiment [7] is 59.2 µM; in [8], > 100 µM; in [9], 40.7 µM; in experiment [10], 40.3 µM.
